Assay results as given in patent US20130338152A1, “FLUOROPHENYL BICYCLIC HETEROARYL COMPOUNDS” (IRM LLC, priority 2011, published 2013).

Assays:
[1] = molecular target: T1, IGF1R (Homo sapiens, UniProt P08069); test: Cellular IGF-1R assay: inhibition of IGF1R phosphorylation in Hek293 cells, capture ELISA (MSD); type: cell-based; set-up: expressed in transfected cells; host or cells: Hek293 (Hek293-IGF1R); conditions: IGF-triggered receptor phosphorylation
Method: IVa. Cellular IGF-1R and InsR Assays
Compound-mediated inhibition of IGF1R and INSR phosphorylation in Hek293 cells transduced with the corresponding receptors is assessed in a capture ELISA format using the MSD (Meso Scale Discovery) platform. Briefly, 30′000 cells washed and diluted in starvation medium (DMEM high glucose supplemented with 0.1% BSA) are seeded in 90 μL per well into 96-well plates pre-coated with poly-D-lysine (0.1 mg/mL in PBS/O). After 24 h incubation at 37° C. and 5% CO2, dose-response effects are determined with 3-fold serial compound dilutions, starting at 10 μM. The final vehicle concentration is 0.1% DMSO in all wells. Following pre-incubation with compounds for 1 h, receptor phosphorylation is triggered by a 10 min exposure to 1.0 ng/μL IGF for Hek293-IGF1R cells, and 5.0 ng/μL insulin for Hek293-InsR cells. Cell lysis is achieved by addition of 80 μL MSD lysis buffer per aspirated well, incubation on ice for 20 min, and a freeze-thaw cycle. Target phosphorylation is then assessed by transferring volumes corresponding to approx. 6 μg Hek293-IGF1R or 0.6 μg Hek293-InsR lysates to MSD assay plates pre-coated with total-IGF1R or total-InsR Abs, respectively. […] Immune complexes are detected by a SULFO-Tag™-coupled anti-rabbit IgG antibody in the presence of 150 μL MSD read-buffer. Light emission at 620 nm triggered by application of electric current is recorded on a MSD Sectorlmager 6000. Acquired raw data (mean Ru-ECL units) are processed in an Excel analysis template. The plate blank (MSD lysis buffer) is subtracted from all data points. The effect of a particular test compound concentration on receptor phosphorylation is expressed relative to the window defined by ligand-stimulated vs unstimulated control cells (set as 100%). IC50 values [nM] are determined using 4-parametric curve-fitting (XLfit software, V4.3.2).

[2] = molecular target: cMET (Homo sapiens, UniProt P08581); test: Enzymatic kinase assay; type: biochemical
Method: (§1) Two methods were used to analyze phosphorylated peptides and proteins produced by the listed tyrosine and serine/threonine-specific protein kinases: either using a filter-binding assay (FB), or using a flashplate assay (FP). The activities of protein kinases were assayed in the presence or absence of inhibitors, by measuring the incorporation of ^33P from [γ^33P]ATP into appropriate substrates.
(§2) 96-well polypropylene microplates were used to assay the activity in the FB mode. To determine the inhibitory activity of compounds 10 μL of compound dilutions were pipetted into 96-well plates followed by the addition of 10 μL of assay mix and 10 μL of individual enzymes. With the addition of the enzymes the reactions were initiated and continued at RT. […] The final concentration of DMSO in the enzyme assays was 1%.
(§3) Flashplates are available as 96-well standard (STFPs) or as streptavidin-(SAFPs) or nickel coated FPs (NiFPs) from Perkin Elmer. STFPs are 96-well polystyrene microplates in which the interior of each well is permanently coated with a thin layer of polystyrene-based scintillant. Streptavidin flashplates (SAFP) are 96 or 384-well STFPs coated with streptavidin. SAFPs are suitable for a wide variety of assay applications which utilize biotinylated capture molecules. NiFP or nickel chelate flashplates are 96- or 384-well STFPs coated with nickel chelate. NiFPs are designed for in-plate, radiometric assays which utilize 4- or 6-histidine tagged proteins and peptides.
(§4) All kinase assays were performed in STFPs for 60 mins at RT and stopped with 50 μL of 0.5% H3PO4 except PKA which were carried out in polypropylene 96- and 384-well plates, respectively. […] All wells were then washed three times with 200 μL of 0.5% H3PO4 and the plates were dried at room temperature. The plates were sealed and counted in a microplate scintillation counter (TopCount NXT, TopCount NXT HTS). The final concentration of DMSO in the enzyme assays was 1%.

[3] = molecular target: T2, Aurora A (Homo sapiens, UniProt O14965); test: Enzymatic kinase assay; type: biochemical
T2 sequence (O14965 1-403): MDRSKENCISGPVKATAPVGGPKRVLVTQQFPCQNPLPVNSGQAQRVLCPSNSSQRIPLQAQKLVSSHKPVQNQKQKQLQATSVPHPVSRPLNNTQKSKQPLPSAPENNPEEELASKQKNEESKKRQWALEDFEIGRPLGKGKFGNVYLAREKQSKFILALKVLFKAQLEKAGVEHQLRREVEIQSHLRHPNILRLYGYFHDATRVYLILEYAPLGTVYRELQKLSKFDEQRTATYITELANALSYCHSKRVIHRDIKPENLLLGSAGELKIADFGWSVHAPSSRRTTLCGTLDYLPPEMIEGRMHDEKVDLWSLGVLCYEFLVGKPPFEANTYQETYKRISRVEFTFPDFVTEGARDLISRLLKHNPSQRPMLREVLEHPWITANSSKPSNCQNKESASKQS
Method: as §1, §2, §3, §4

[4] = molecular target: P38a (Homo sapiens, UniProt Q16539); test: Enzymatic kinase assay; type: biochemical
Method: as §1, §2, §3, §4

[5] = molecular target: COT1 (Homo sapiens, UniProt P41279); test: Enzymatic kinase assay; type: biochemical
Method: as §1, §2, §3, §4

[6] = molecular target: FGFR-4 (Homo sapiens, UniProt P22455); test: Enzymatic kinase assay; type: biochemical
Method: as §1, §2, §3, §4

[7] = molecular target: KDR (Homo sapiens, UniProt P35968); test: Enzymatic kinase assay; type: biochemical
Method: as §1, §2, §3, §4

[8] = molecular target: PDGFRa (Homo sapiens, UniProt P16234); test: Enzymatic kinase assay; type: biochemical
Sequence of PDGFRa (P16234 24-1089, species assumed): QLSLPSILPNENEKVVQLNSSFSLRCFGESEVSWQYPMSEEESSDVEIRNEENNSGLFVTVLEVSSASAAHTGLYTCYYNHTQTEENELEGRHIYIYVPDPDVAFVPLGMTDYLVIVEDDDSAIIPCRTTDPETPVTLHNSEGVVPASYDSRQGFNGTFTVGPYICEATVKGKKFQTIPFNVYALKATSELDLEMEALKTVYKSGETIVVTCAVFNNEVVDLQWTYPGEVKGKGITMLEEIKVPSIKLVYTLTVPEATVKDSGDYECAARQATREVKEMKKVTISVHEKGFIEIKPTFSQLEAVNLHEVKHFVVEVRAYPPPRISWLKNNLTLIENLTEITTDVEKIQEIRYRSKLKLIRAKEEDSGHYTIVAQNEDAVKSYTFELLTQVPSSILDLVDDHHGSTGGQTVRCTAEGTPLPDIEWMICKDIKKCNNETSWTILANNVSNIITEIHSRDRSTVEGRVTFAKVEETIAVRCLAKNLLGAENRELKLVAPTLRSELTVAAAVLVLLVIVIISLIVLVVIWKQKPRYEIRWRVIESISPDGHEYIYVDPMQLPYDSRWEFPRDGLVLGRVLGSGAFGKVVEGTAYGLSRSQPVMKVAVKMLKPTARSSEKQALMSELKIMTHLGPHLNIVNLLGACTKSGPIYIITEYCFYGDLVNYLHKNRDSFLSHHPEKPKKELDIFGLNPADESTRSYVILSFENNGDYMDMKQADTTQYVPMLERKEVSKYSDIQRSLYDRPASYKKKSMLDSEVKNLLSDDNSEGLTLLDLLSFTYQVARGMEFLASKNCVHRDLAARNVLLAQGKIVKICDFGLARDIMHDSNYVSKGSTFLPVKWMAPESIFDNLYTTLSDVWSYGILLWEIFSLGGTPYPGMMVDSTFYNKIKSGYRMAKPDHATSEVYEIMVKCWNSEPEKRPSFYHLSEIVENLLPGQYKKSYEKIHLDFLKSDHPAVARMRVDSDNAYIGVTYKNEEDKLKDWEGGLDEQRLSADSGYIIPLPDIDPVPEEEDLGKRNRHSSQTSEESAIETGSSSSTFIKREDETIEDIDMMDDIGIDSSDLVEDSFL
Method: as §1, §2, §3, §4

[9] = molecular target: GSK3beta (Homo sapiens, UniProt P49841); test: Enzymatic kinase assay; type: biochemical
Method: as §1, §2, §3, §4

[10] = molecular target: HER2 (Homo sapiens, UniProt P04626); test: Enzymatic kinase assay; type: biochemical
Sequence of HER2 (P04626 23-1255, species assumed): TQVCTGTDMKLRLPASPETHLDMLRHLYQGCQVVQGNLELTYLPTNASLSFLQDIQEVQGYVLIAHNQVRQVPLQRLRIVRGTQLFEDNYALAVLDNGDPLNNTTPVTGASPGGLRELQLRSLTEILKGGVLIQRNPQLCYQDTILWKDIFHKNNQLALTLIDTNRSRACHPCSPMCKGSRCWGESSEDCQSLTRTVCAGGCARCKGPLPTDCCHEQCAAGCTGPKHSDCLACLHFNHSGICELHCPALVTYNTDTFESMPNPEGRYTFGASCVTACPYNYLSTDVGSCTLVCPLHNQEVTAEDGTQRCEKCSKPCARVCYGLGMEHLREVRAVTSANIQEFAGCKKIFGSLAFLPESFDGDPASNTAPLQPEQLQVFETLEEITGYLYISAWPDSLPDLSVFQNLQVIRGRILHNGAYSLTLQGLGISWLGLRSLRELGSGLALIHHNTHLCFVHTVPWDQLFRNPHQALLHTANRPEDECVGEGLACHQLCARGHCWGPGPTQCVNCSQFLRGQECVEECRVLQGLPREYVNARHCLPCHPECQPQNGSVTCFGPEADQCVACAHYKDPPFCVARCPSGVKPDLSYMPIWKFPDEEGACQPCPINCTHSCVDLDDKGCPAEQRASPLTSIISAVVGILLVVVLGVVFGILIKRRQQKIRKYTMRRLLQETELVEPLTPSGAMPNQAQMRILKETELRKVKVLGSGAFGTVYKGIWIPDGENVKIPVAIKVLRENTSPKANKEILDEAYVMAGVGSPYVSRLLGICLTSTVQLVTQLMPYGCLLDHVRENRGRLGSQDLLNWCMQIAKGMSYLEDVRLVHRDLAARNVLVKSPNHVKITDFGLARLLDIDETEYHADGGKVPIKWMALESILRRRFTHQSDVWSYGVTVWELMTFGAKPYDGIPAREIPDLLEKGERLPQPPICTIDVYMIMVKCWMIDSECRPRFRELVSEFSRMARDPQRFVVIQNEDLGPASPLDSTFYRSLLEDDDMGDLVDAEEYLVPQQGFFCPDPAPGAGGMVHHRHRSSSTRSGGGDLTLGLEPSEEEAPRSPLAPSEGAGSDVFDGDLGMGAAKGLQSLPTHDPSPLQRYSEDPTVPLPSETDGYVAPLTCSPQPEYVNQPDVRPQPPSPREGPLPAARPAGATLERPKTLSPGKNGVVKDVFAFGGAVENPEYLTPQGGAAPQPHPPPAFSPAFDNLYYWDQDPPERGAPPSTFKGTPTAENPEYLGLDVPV
Method: as §1, §2, §3, §4

[11] = molecular target: JAK2 (Homo sapiens, UniProt O60674); test: Enzymatic kinase assay; type: biochemical
Method: as §1, §2, §3, §4

[12] = molecular target: RET (Homo sapiens, UniProt P07949); test: Enzymatic kinase assay; type: biochemical; conditions: enzymatic; read-out: RET IC50 values (converted)
Method: as §1, §2, §3, §4

[13] = molecular target: cABLT315 (Homo sapiens, UniProt P00519, T315I); test: Enzymatic kinase assay; type: biochemical
Method: as §1, §2, §3, §4

[14] = molecular target: cKIT (Homo sapiens, UniProt P10721); test: Enzymatic kinase assay; type: biochemical
Method: as §1, §2, §3, §4

[15] = molecular target: EphA4 (Homo sapiens, UniProt P54764); test: Enzymatic kinase assay; type: biochemical
Sequence of EphA4 (P54764 20-986, species assumed): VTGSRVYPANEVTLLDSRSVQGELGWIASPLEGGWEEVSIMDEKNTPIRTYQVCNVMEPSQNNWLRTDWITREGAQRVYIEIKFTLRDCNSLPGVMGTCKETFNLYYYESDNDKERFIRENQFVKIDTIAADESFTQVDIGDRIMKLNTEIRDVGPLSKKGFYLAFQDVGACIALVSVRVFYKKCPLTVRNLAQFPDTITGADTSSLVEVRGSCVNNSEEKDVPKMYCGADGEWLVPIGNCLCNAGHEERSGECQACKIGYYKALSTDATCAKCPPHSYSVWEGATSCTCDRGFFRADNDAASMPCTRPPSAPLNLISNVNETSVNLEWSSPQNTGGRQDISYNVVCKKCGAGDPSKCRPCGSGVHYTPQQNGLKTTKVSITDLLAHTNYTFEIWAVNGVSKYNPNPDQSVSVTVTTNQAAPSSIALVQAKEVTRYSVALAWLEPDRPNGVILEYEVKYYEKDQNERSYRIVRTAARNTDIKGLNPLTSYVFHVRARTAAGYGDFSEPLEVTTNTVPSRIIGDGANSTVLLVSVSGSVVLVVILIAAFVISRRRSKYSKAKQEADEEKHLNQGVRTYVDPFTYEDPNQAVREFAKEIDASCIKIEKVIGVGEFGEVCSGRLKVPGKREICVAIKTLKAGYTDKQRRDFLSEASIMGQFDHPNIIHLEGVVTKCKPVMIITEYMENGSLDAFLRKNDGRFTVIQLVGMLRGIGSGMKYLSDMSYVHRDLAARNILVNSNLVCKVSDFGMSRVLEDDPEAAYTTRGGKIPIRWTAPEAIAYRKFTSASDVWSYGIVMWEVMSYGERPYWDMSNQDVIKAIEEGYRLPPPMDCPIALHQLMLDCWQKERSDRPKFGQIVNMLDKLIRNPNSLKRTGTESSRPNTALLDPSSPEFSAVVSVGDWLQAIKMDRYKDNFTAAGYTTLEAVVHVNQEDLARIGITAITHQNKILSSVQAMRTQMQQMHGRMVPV
Method: as §1, §2, §3, §4

[16] = molecular target: ERK2 (Homo sapiens, UniProt P28482); test: Enzymatic kinase assay; type: biochemical
Method: as §1, §2, §3, §4

[17] = molecular target: LCK (Homo sapiens, UniProt P06239); test: Enzymatic kinase assay; type: biochemical
Sequence of LCK (P06239 whole entry, species assumed): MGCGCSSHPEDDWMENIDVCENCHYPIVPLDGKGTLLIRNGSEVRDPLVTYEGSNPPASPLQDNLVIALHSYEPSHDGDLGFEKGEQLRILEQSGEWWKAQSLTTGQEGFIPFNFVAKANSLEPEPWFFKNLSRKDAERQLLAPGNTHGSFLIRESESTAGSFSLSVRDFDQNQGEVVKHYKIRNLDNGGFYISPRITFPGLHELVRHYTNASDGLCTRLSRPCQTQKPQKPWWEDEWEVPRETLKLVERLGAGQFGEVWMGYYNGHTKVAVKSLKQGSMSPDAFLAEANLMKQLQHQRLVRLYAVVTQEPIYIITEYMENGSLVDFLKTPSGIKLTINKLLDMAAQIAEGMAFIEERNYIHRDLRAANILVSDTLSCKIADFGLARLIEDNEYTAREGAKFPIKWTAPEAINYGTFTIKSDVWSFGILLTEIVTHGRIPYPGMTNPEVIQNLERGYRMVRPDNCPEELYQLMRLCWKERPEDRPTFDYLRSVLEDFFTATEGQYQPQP
Method: as §1, §2, §3, §4

[18] = molecular target: CDK2A (Homo sapiens, UniProt P24941); test: Enzymatic kinase assay; type: biochemical
Method: as §1, §2, §3, §4

[19] = molecular target: TYK2 (Homo sapiens, UniProt P29597); test: Enzymatic kinase assay; type: biochemical
Sequence of TYK2 (P29597 whole entry, species assumed): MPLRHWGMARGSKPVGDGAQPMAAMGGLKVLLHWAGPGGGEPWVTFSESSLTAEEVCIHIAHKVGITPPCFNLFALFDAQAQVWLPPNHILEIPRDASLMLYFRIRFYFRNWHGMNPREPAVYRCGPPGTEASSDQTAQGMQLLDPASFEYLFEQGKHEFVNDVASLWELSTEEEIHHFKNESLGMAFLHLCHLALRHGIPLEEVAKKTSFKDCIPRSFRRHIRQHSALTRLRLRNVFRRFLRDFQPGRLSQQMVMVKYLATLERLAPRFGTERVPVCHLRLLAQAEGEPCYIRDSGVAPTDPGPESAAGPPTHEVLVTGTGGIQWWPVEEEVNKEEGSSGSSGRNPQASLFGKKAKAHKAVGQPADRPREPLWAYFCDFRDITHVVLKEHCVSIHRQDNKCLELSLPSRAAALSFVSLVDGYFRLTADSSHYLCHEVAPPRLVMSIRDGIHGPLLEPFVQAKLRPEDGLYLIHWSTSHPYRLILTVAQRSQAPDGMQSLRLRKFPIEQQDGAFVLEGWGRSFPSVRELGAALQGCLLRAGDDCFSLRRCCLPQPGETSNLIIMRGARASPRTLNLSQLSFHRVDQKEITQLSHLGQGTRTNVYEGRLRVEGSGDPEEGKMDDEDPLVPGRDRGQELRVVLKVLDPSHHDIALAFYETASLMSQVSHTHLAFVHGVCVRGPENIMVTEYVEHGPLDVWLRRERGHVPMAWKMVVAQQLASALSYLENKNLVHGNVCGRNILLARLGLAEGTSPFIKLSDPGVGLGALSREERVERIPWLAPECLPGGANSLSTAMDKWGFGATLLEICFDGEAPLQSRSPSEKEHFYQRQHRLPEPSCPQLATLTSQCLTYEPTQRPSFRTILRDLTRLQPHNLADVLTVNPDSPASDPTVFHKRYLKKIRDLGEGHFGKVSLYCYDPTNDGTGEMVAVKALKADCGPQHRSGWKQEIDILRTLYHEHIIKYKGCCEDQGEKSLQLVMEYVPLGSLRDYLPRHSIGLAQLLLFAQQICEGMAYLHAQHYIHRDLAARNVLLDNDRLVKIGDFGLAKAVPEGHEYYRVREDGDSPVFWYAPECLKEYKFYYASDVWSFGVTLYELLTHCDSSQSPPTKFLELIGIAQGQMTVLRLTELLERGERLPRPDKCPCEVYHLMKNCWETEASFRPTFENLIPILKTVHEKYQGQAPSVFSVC
Method: as §1, §2, §3, §4

[20] = molecular target: MK2 (Homo sapiens, UniProt P49137); test: Enzymatic kinase assay; type: biochemical
Method: as §1, §2, §3, §4

[21] = molecular target: T1, IGF1R; test: Enzymatic kinase assay (filter-binding/flashplate); type: biochemical
Method: as §1, §2, §3, §4

[22] = molecular target: InsR (Homo sapiens, UniProt P06213); test: Enzymatic kinase assay (filter-binding/flashplate); type: biochemical; conditions: enzymatic; read-out: InsR IC50 values
Method: as §1, §2, §3, §4

[23] = molecular target: hERG channels (Homo sapiens, UniProt Q12809); test: biochemical

| IC50 [2] [µM] | IC50 [3] [µM] | IC50 [4] [µM] | IC50 [5] [µM] | IC50 [6] [µM] | IC50 [7] [µM] | IC50 [8] [µM] | IC50 [9] [µM] | IC50 [10] [µM] | IC50 [11] [µM] | IC50 [12] [µM] | IC50 [13] [µM] | IC50 [14] [µM] | IC50 [15] [µM] | IC50 [16] [µM] | IC50 [17] [µM] | IC50 [18] [µM] | IC50 [19] [µM] | IC50 [20] [µM] | IC50 [22] [µM] | Structure (SMILES) | other results |
| --- | --- | --- | --- | --- | --- | --- | --- | --- | --- | --- | --- | --- | --- | --- | --- | --- | --- | --- | --- | --- | --- |
| > 10 | 7 | > 10 | > 10 | > 10 | 2.4 | 6.3 | > 10 | > 10 | > 10 | 2 | > 10 | > 10 | > 10 | > 10 | > 10 | > 10 | > 10 | > 10 | 0.038 | Nc1ncnc2c1c(-c1cccc(OCC3CCCO3)c1F)cn2[C@H]1C[C@@H](CN2CCS(=O)(=O)CC2)C1 (mixture of isomers) [Example 1, 7-[3-(1,1-Dioxo-1-thiomorpholin-4-ylmethyl)-cyclobutyl]-5-[2-fluoro-3-(tetrahydro-furan-2-ylmethoxy)-phenyl]-7H-pyrrolo[2,3-d]pyrimidin-4-ylamine] | IC50 [1]: 0.005 µM; IC50 [21]: 0.0042 µM |
| > 10 | > 10 | > 10 | > 10 | > 10 | > 10 | > 10 | > 10 | > 10 | > 10 | > 10 | > 10 | > 10 | > 10 | > 10 | > 10 | > 10 | > 10 | > 10 | 0.075 | Nc1ncnc2c1c(-c1cc(OCC34CCC(CC3)O4)ccc1F)cn2[C@H]1C[C@@H](N2CC[S+]([O-])CC2)C1 (relative stereo) [Example 34, 5-[2-Fluoro-5-(7-oxa-bicyclo[2.2.1]hept-1-ylmethoxy)-phenyl]-7-[cis-3-(1-oxo-thiomorpholin-4-yl)-cyclobutyl]-7H-pyrrolo[2,3-d]pyrimidin-4-ylamine] | IC50 [21]: 0.0084 µM |
| > 10 | > 10 | > 10 | > 10 | > 10 | > 10 | > 10 | > 10 | > 10 | > 10 | 6.4 | > 10 | > 10 | > 10 | > 10 | 6.6 | > 10 | > 10 | > 10 | 0.081 | [2H]C1([2H])C([2H])([2H])C2(COc3ccc(F)c(-c4cn([C@H]5C[C@@H](N6CCN(C(C)=O)CC6)C5)c5ncnc(N)c45)c3)OC1([2H])C([2H])([2H])C2([2H])[2H] [Example 10, d9-1-[4-(cis-3-{4-Amino-5-[2-fluoro-5-(7-oxa-bicyclo[2.2.1]hept-1-ylmethoxy)-phenyl]-pyrrolo[2,3-d]pyrimidin-7-yl}-cyclobutyl)-piperazin-1-yl]-ethanone] | IC50 [23]: 6.8 µM |
| > 10 | > 10 | > 10 | > 10 | > 10 | > 10 | > 10 | > 10 | > 10 | > 10 | > 10 | > 10 | > 10 | > 10 | > 10 | 6.6 | > 10 | > 10 | > 10 | 0.13 | [2H]C1([2H])C([2H])([2H])C2(COc3cccc(-c4cn([C@H]5C[C@](O)(CO)C5)c5ncnc(N)c45)c3F)OC1([2H])C([2H])([2H])C2([2H])[2H] [Example 27, d9-(Z)-3-{4-Amino-5-[2-fluoro-3-(7-oxa-bicyclo[2.2.1]hept-1-ylmethoxy)-phenyl]-pyrrolo[2,3-d]pyrimidin-7-yl}-1-hydroxymethyl-cyclobutanol] | IC50 [21]: 0.022 µM; IC50 [23]: > 30 µM |
| > 10 | > 10 | > 10 | > 10 | > 10 | > 10 | > 10 | > 10 | > 10 | > 10 | 3.1 | > 10 | > 10 | > 10 | > 10 | 9.7 | > 10 | > 10 | > 10 | 1.3 | CC(=O)N1CCN([C@H]2C[C@H](n3cc(-c4cc(OC[C@@H]5CCCO5)ccc4F)c4c(N)ncnc43)C2)CC1 [Example 36, 1-{4-[trans-3-(4-Amino-5-{2-fluoro-5-[(S)-1-(tetrahydro-furan-2-yl)methoxy]-phenyl}-pyrrolo[2,3-d]pyrimidin-7-yl)-cyclobutyl]-piperazin-1-yl}-ethanone] | IC50 [21]: 0.03 µM; IC50 [23]: > 30 µM |
| – | – | – | > 10 | > 10 | – | > 10 | – | – | – | – | – | > 10 | > 10 | – | – | – | – | – | – | C[C@]1(O)C[C@@H](c2nc(-c3ccc4ccc(-c5ccccc5)nc4c3)c3c(N)nccn32)C1 [Linsitinib, reference compound] | IC50 [23]: 2.65 µM |
